From PMC10008561 (Nature Communications, 2023)
Where “and” joins values, the source holds several entries; their conditions need not be identical. Identical values can stand only once. Like-named read-outs stand apart in the source and are kept apart here.

Key:
KOR K227A = KOR K227A (Homo sapiens, UniProt P41145, K227A); assay type: cell-based; design: expressed in transfected cells; host or cells: HEK 293T (ATCC, CRL-3216); conditions: Log [Drug]
human KOR (GoA) [1] = biological target: T1, human KOR (GoA) (Homo sapiens, UniProt P41145, K200A); test: cell-based
T1 construct: expressed in transfected cells; host or cells: HEK293T

human KOR (GoA) [2] = biological target: T2, human KOR (GoA) (Homo sapiens, UniProt P41145); test: cell-based
T2 construct: expressed in transfected cells; host or cells: HEK293T

human KOR (GoA) [3] = biological target: T3, human KOR (GoA) (Homo sapiens, UniProt P41145, F114L); test: cell-based
T3 construct: expressed in transfected cells; host or cells: HEK293T

human KOR (GoA) [4] = biological target: T4, human KOR (GoA) (Homo sapiens, UniProt P41145, Q115N); test: cell-based
T4 construct: expressed in transfected cells; host or cells: HEK293T

human KOR (GoA) [5] = biological target: T5, human KOR (GoA) (Homo sapiens, UniProt P41145, N322A); test: cell-based
T5 construct: expressed in transfected cells; host or cells: HEK293T

human KOR (GoA) [6] = biological target: T6, human KOR (GoA) (Homo sapiens, UniProt P41145, D105A); test: cell-based
T6 construct: expressed in transfected cells; host or cells: HEK293T

human KOR (GoA) [7] = biological target: T7, human KOR (GoA) (Homo sapiens, UniProt P41145, N141A); test: cell-based
T7 construct: expressed in transfected cells; host or cells: HEK293T

human KOR (GoA) [8] = biological target: T8, human KOR (GoA) (Homo sapiens, UniProt P41145, D334A); test: cell-based
T8 construct: expressed in transfected cells; host or cells: HEK293T

human KOR (GoA) [9] = biological target: T9, human KOR (GoA) (Homo sapiens, UniProt P41145, R274A); test: cell-based
T9 construct: expressed in transfected cells; host or cells: HEK293T

human KOR (GoA) [10] = biological target: T10, human KOR (GoA) (Homo sapiens, UniProt P41145, L253A); test: cell-based; conditions: HEK-293T
T10 construct: expressed in transfected cells; host or cells: HEK293T

human KOR (GoA) [11] = biological target: T11, human KOR (GoA) (Homo sapiens, UniProt P41145, Y139L); test: cell-based
T11 construct: expressed in transfected cells; host or cells: HEK293T

human KOR (GoA) [12] = biological target: T12, human KOR (GoA) (Homo sapiens, UniProt P41145, D155A); test: cell-based
T12 construct: expressed in transfected cells; host or cells: HEK293T

human KOR (GoA) [13] = biological target: T13, human KOR (GoA) (Homo sapiens, UniProt P41145, R271A); test: cell-based
T13 construct: expressed in transfected cells; host or cells: HEK293T

human KOR (GoA) [14] = biological target: T14, human KOR (GoA) (Homo sapiens, UniProt P41145, T94V); test: cell-based
T14 construct: expressed in transfected cells; host or cells: HEK293T

human KOR (GoA) [15] = biological target: T15, human KOR (GoA) (Homo sapiens, UniProt P41145, Y320L); test: cell-based; conditions: HEK-293T
T15 construct: expressed in transfected cells; host or cells: HEK293T

human KOR (GoA) [16] = biological target: T16, human KOR (GoA) (Homo sapiens, UniProt P41145, R257A); test: cell-based
T16 construct: expressed in transfected cells; host or cells: HEK293T

human KOR (GoA) [17] = biological target: T17, human KOR (GoA) (Homo sapiens, UniProt P41145, G319L); test: cell-based
T17 construct: expressed in transfected cells; host or cells: HEK293T

human KOR (GoA) [18] = biological target: T18, human KOR (GoA) (Homo sapiens, UniProt P41145, E297A); test: cell-based
T18 construct: expressed in transfected cells; host or cells: HEK293T

human KOR (GoA) [19] = biological target: T19, human KOR (GoA) (Homo sapiens, UniProt P41145, K227A); test: cell-based
T19 construct: expressed in transfected cells; host or cells: HEK293T

human KOR [20] = biological target: T20, human KOR (Homo sapiens, UniProt P41145); test: cell-based; design: expressed in transfected cells; host or cells: HEK 293T (ATCC, CRL-3216); conditions: HTLA
human KOR [21] = biological target: T21, human KOR (Homo sapiens, UniProt P41145, V134A); test: cell-based; conditions: HEK-293T
T21 construct: expressed in transfected cells; host or cells: HEK 293T (ATCC, CRL-3216)

human KOR [22] = biological target: T20, human KOR; test: cell-based
KOR [23] = test: Bias factor, Gz vs β-arrestin2 (BRET), U50,488 as reference; assay type: cell-based, human
KOR [24] = conditions: ERK activation versus p38 activation; cited from earlier work
[25] = read-out: KOR WT_Arrestin response (Figure S4D)
[26] = read-out: Tango response (Figure S4C)

T21 sequence (P41145 whole entry V134A): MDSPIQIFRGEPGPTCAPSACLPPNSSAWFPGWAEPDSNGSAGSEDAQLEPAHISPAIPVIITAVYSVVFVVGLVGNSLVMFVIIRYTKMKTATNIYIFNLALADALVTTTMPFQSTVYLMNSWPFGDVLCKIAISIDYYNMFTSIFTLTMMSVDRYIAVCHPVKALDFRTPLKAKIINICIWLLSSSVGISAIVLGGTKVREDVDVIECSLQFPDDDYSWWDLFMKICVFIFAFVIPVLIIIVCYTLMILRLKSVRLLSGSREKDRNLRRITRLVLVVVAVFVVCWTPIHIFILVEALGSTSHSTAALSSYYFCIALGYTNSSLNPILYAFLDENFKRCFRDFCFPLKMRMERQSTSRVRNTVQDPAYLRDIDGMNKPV
KOR K227A, sequence (P41145 whole entry K227A): as the sequence (P41145 whole entry V134A) above, with A134V, K227A counted along it
T20 sequence (P41145 whole entry): as the sequence (P41145 whole entry V134A) above, with A134V counted along it
T2 sequence (P41145 whole entry): as the sequence (P41145 whole entry V134A) above, with A134V counted along it
T12 sequence (P41145 whole entry D155A): as the sequence (P41145 whole entry V134A) above, with A134V, D155A counted along it
T5 sequence (P41145 whole entry N322A): as the sequence (P41145 whole entry V134A) above, with A134V, N322A counted along it
T1 sequence (P41145 whole entry K200A): as the sequence (P41145 whole entry V134A) above, with A134V, K200A counted along it
T19 sequence (P41145 whole entry K227A): as the sequence (P41145 whole entry V134A) above, with A134V, K227A counted along it
T9 sequence (P41145 whole entry R274A): as the sequence (P41145 whole entry V134A) above, with A134V, R274A counted along it
T7 sequence (P41145 whole entry N141A): as the sequence (P41145 whole entry V134A) above, with A134V, N141A counted along it
T8 sequence (P41145 whole entry D334A): as the sequence (P41145 whole entry V134A) above, with A134V, D334A counted along it
T4 sequence (P41145 whole entry Q115N): as the sequence (P41145 whole entry V134A) above, with Q115N, A134V counted along it
T13 sequence (P41145 whole entry R271A): as the sequence (P41145 whole entry V134A) above, with A134V, R271A counted along it
T16 sequence (P41145 whole entry R257A): as the sequence (P41145 whole entry V134A) above, with A134V, R257A counted along it
T18 sequence (P41145 whole entry E297A): as the sequence (P41145 whole entry V134A) above, with A134V, E297A counted along it
T17 sequence (P41145 whole entry G319L): as the sequence (P41145 whole entry V134A) above, with A134V, G319L counted along it
T3 sequence (P41145 whole entry F114L): as the sequence (P41145 whole entry V134A) above, with F114L, A134V counted along it
T14 sequence (P41145 whole entry T94V): as the sequence (P41145 whole entry V134A) above, with T94V, A134V counted along it
T6 sequence (P41145 whole entry D105A): as the sequence (P41145 whole entry V134A) above, with D105A, A134V counted along it
T10 sequence (P41145 whole entry L253A): as the sequence (P41145 whole entry V134A) above, with A134V, L253A counted along it
T15 sequence (P41145 whole entry Y320L): as the sequence (P41145 whole entry V134A) above, with A134V, Y320L counted along it
T11 sequence (P41145 whole entry Y139L): as the sequence (P41145 whole entry V134A) above, with A134V, Y139L counted along it

In the case of `CN(C(=O)/C=C/c1ccoc1)[C@@H]1CC[C@@]2(O)[C@H]3Cc4ccc(O)c5c4[C@@]2(CCN3CC2CC2)[C@H]1O5` [Nalfurafine, nalfurafine], the “KOR K227A_Gi response (Figure S4D)” value (KOR K227A; M -6, replicate values) is reported as 107.002 and 103.527 and 102.568, the “KOR K227A_Gi response (Figure S4D)” value (KOR K227A; M -6.5, replicate values) is reported as 98.0139 and 98.733 and 102.808 and the “KOR K227A_Gi response (Figure S4D)” value (KOR K227A; M -7, replicate values) is reported as 101.489 and 104.366 and 102.568. The “KOR K227A_Gi response (Figure S4D)” value (KOR K227A; M -7.5, replicate values) was 98.3734 and 96.4559 and 94.5383, the “KOR K227A_Gi response (Figure S4D)” value (KOR K227A; M -8, replicate values) was 100.531 and 98.0139 and the “KOR K227A_Gi response (Figure S4D)” value (KOR K227A; M -8.5, replicate values) was 99.8116 and 103.767 and 98.2536. The “KOR K227A_Gi response (Figure S4D)” value (KOR K227A; M -9, replicate values) was 96.9353 and 103.167 and 100.291, the “KOR K227A_Gi response (Figure S4D)” value (KOR K227A; M -9.5, replicate values) was 98.9727 and 99.5719 and 95.8566 and the “KOR K227A_Gi response (Figure S4D)” value (KOR K227A; M -10, replicate values) was 99.3322 and 106.283 and 99.5719. For the same molecule, the “KOR K227A_Gi response (Figure S4D)” value (KOR K227A; M -10.5, replicate values) was 95.9765 and 94.778 and 93.8193, the “KOR K227A_Gi response (Figure S4D)” value (KOR K227A; M -11, replicate values) was 90.7033 and 96.5757 and 95.2574 and the “KOR K227A_Gi response (Figure S4D)” value (KOR K227A; M -12, replicate values) was 68.1721 and 73.8049 and 67.4531. The “KOR K227A_Gi response (Figure S4D)” value (KOR K227A; M -12.5, replicate values) was 37.1319 and 43.2441 and 45.1616, the “KOR K227A_Gi response (Figure S4D)” value (KOR K227A; M -13, replicate values) was 12.6833 and 10.4062 and the “KOR K227A_Gi response (Figure S4D)” value (KOR K227A; M -14, replicate values) was 6.331 and 5.612 and 17.3573. For the same molecule, the “FC vs wild type” value (human KOR (GoA) [1]) was 8, the Emax (human KOR (GoA) [1]; HEK-293T) was 91.4% and the Emax% (human KOR (GoA) [2]) was 98.31%. For the same molecule, the “FC vs wild type” value (human KOR (GoA) [2]) was 1, the Emax (human KOR (GoA) [2]; HEK-293T) was 98.7% and the “FC vs wild type” value (human KOR (GoA) [3]) was 40. For the same molecule, the Emax (human KOR (GoA) [3]; HEK-293T) was 67.4%, the “FC vs wild type” value (human KOR (GoA) [4]) was 24 and the Emax (human KOR (GoA) [4]; HEK-293T) was 65.8%. The “FC vs wild type” value (human KOR (GoA) [5]) was 100, the Emax (human KOR (GoA) [5]; HEK-293T) was 91.3% and the “FC vs wild type” value (human KOR (GoA) [6]) was 110. The “FC vs wild type” value (human KOR (GoA) [7]) was 9, the Emax (human KOR (GoA) [7]; HEK-293T) was 101% and the “FC vs wild type” value (human KOR (GoA) [8]) was 18. For the same molecule, the Emax (human KOR (GoA) [8]; HEK-293T) was 96.9%, the “FC vs wild type” value (human KOR (GoA) [9]) was 479 and the Emax (human KOR (GoA) [9]; HEK-293T) was 99.5%. For the same molecule, the Emax (human KOR (GoA) [10]) was 109%, the “FC vs wild type” value (human KOR (GoA) [11]) was 3 and the “FC vs wild type” value (human KOR (GoA) [12]) was 9 and < 10. For the same molecule, the Emax (human KOR (GoA) [12]; HEK-293T) was 95.7%, the “FC vs wild type” value (human KOR (GoA) [13]) was 135 and the Emax (human KOR (GoA) [13]; HEK-293T) was 107%. For the same molecule, the “FC vs wild type” value (human KOR (GoA) [14]) was 1, the Emax (human KOR (GoA) [14]; HEK-293T) was 99.7% and the Emax (human KOR (GoA) [15]) was 75.8%. The “FC vs wild type” value (human KOR (GoA) [16]) was 14 and 10, the “FC vs wild type” value (human KOR (GoA) [17]) was 20 and the Emax (human KOR (GoA) [17]; HEK-293T) was 101%. For the same molecule, the “FC vs wild type” value (human KOR (GoA) [18]) was 2, the Emax (human KOR (GoA) [18]; HEK-293T) was 98.9% and the “FC vs wild type” value (human KOR (GoA) [19]) was 1. The Emax (human KOR (GoA) [19]; HEK-293T) was 107%, the Emax (human KOR [20]) was 100 ± 5% and the activation at 3.162 pM (human KOR [20]; [25]) was 21.6%. The activation at 10 pM (human KOR [20]; [25]) was 33.5%, the activation at 31.62 pM (human KOR [20]; [25]) was 37.7% and the activation at 0.0001 µM (human KOR [20]; [25]) was 65.6%. The activation at 0.001 µM (human KOR [20]; [25]) was 67.9%, the activation at 0.01 µM (human KOR [20]; [25]) was 76.6% and the activation at 0.1 µM (human KOR [20]; [25]) was 97.1%. The activation at 1 µM (human KOR [20]; [25]) was 106%, the activation at […] (human KOR [20]; [25]) was 68.4% and 74.4% and 96.9% and 96.5% and the activation at 10 pM (human KOR [20]; read-out: Tango response) was 21.8%. The activation at 31.62 pM (human KOR [20]; read-out: Tango response) was 35.1%, the activation at 0.0001 µM (human KOR [20]; read-out: Tango response) was 39.8% and the activation at 0.001 µM (human KOR [20]; read-out: Tango response) was 74.2%. For the same molecule, the activation at 0.01 µM (human KOR [20]; read-out: Tango response) was 80.9%, the activation at 1 µM (human KOR [20]; read-out: Tango response) was 106% and the activation at […] (human KOR [20]; read-out: Tango response) was 71% and 100%. It also gave an activation at 0.0001 µM (human KOR [20]; [26]) of 36.1%, an activation at 0.001 µM (human KOR [20]; [26]) of 74.1% and an activation at 0.1 µM (human KOR [20]; [26]) of 87.2%. For the same molecule, the activation at 1 µM (human KOR [20]; [26]) was 87.7%, the activation at 10 µM (human KOR [20]; [26]) was 121% and the activation at […] (human KOR [20]; [26]) was 77.4% and 111%. For the same molecule, the Emax (human KOR [21]) was 93 ± 3%, the activation at 3.162 pM (human KOR [21]; read-out: cAMP response) was 23.5% and the activation at 10 pM (human KOR [21]; read-out: cAMP response) was 48.2%. It also gave an activation at 31.62 pM (human KOR [21]; read-out: cAMP response) of 53.1%, an activation at 0.0001 µM (human KOR [21]; read-out: cAMP response) of 62.8% and an activation at 0.001 µM (human KOR [21]; read-out: cAMP response) of 82.5%. The activation at 0.01 µM (human KOR [21]; read-out: cAMP response) was 96.2%, the activation at 0.1 µM (human KOR [21]; read-out: cAMP response) was 104% and the activation at 1 µM (human KOR [21]; read-out: cAMP response) was 96.6%. For the same molecule, the activation at […] (human KOR [21]; read-out: cAMP response) was 58.2% and 90% and 99.4% and 95.7%, the reduction of potency (human KOR [22]) was 5 fold and the “bias factor towards Gz protein” value (KOR [23]) was 4.8. For the same molecule, the “bias factor toward G protein signaling” value (KOR [24]) was 200.
